Legend:
Assay type in all cases: in vivo
[1] = test system: Beet Armyworm (Spodoptera exigua, LAPHEG); test: Bioassay on Beet Armyworm (BAW), 128-well diet tray assay; conditions: Species BAW (Beet Armyworm), read-out: BAW (Biological Results, rating)
Procedure, shortened: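 Artificial diet surface-treated with 50 μg/cm^2 test molecule in 90:10 acetone-water, dried, then infested with one to five second instar larvae per well. Held covered and vented at 25° C., 14:10 light-dark for five to seven days; percent mortality recorded per well and averaged over eight wells.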

[2] = test system: Cabbage Looper (Trichoplusia ni, TRIPNI); test: Bioassay on Cabbage Looper (CL), 128-well diet tray assay; conditions: Trichoplusia ni; Species CL (Cabbage Looper); read-out: CL (Biological Results, rating)
Procedure, shortened: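 Second-instar larvae, one to five per well, were placed on artificial diet surface-treated with 50 μg/cm^2 test molecule applied in 90:10 acetone-water and dried, eight wells per molecule. Trays were covered, vented and held at 25° C., 14:10 light-dark for five to seven days; percent mortality per well was averaged.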

[3] = test system: Yellow Fever Mosquito (Aedes aegypti, AEDSAE); test: Bioassay on Yellow Fever Mosquito (YFM), 96-well plate larval assay; conditions: Species YFM (Yellow Fever Mosquito)
Procedure, shortened: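 Aedes aegypti larvae (about 1 day old) in liver-powder water were added to plates dispensed from DMSO master plates (4000 ppm stock) diluted with 90:10 water/acetone; six replicate plates per master. Lidded plates were held at room temperature for 3 days, then each well was scored for mortality.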

| Structure (SMILES) | pest or weed control at 50 µg/cm2 [1] [%] | pest or weed control at 50 µg/cm2 [2] [%] | YFM (Biological Results, rating) [3] |
| --- | --- | --- | --- |
| O=C(Nc1ccc(F)cc1)c1cc(NC(=O)[C@H]2[C@H](c3ccc(Cl)c(Cl)c3)C2(Cl)Cl)ccc1Cl [F209, 2-Chloro-5-((1R,3R)-2,2-dichloro-3-(3,4-dichlorophenyl)cyclopropane-1-carboxamido)-N-(4-fluorophenyl)benzamide] | 50 to 100 | 50 to 100 | A (80-100) |
| O=C(Nc1ccc(F)cc1F)c1cc(NC(=O)[C@@H]2[C@@H](c3ccc(Cl)c(Cl)c3)C2(Cl)Cl)ccc1Cl [F210, 2-Chloro-5-((1S,3S)-2,2-dichloro-3-(3,4-dichlorophenyl)cyclopropane-1-carboxamido)-N-(2,4-difluorophenyl)benzamide] | 50 to 100 | 50 to 100 | A (80-100) |
| O=C(Nc1ccc(F)cc1F)c1cc(NC(=O)[C@H]2[C@H](c3ccc(Cl)c(Cl)c3)C2(Cl)Cl)ccc1Cl [F211, 2-Chloro-5-((1R,3R)-2,2-dichloro-3-(3,4-dichlorophenyl)cyclopropane-1-carboxamido)-N-(2,4-difluorophenyl)benzamide] | 50 to 100 | 50 to 100 | A (80-100) |
| O=C(Nc1ccc(F)cc1)c1cc(NC(=O)C2C(c3cc(Cl)cc(Cl)c3)[C@@H]2Cl)ccc1Cl (stereo partly drawn) [F212, 2-Chloro-5-((2S)-2-chloro-3-(3,5-dichlorophenyl)cyclopropane-1-carboxamido)-N-(4-fluorophenyl)benzamide] | 50 to 100 | 50 to 100 | A (80-100) |
| O=C(Nc1ccc(F)cc1)c1cc(NC(=O)C2C(c3cc(Cl)cc(Cl)c3)[C@H]2Cl)ccc1Cl (stereo partly drawn) [F213, 2-Chloro-5-((2R)-2-chloro-3-(3,5-dichlorophenyl)cyclopropane-1-carboxamido)-N-(4-fluorophenyl)benzamide] | 50 to 100 | 50 to 100 | A (80-100) |
| O=C(Nc1ccc(F)cc1F)c1cc(NC(=O)C2C(c3cc(Cl)cc(Cl)c3)[C@@H]2Cl)ccc1Cl (stereo partly drawn) [F214, 2-Chloro-5-((2S)-2-chloro-3-(3,5-dichlorophenyl)cyclopropane-1-carboxamido)-N-(2,4-difluorophenyl)benzamide] | 50 to 100 | 50 to 100 | B (More than 0-Less than 80) |
| O=C(Nc1ccc(F)cc1F)c1cc(NC(=O)C2C(c3cc(Cl)cc(Cl)c3)[C@H]2Cl)ccc1Cl (stereo partly drawn) [F215, 2-Chloro-5-((2R)-2-chloro-3-(3,5-dichlorophenyl)cyclopropane-1-carboxamido)-N-(2,4-difluorophenyl)benzamide] | 50 to 100 | 50 to 100 | B (More than 0-Less than 80) |
| CC1(c2cc(Cl)cc(Cl)c2)C(C(=O)Nc2ccc(Cl)c(C(=O)Nc3ccc(F)cc3)c2)C1(Cl)Cl (stereo not drawn) [F251, 2-Chloro-5-trans-(2,2-dichloro-3-(3,5-dichlorophenyl)-3-methylcyclopropane-1-carboxamido)-N-(4-fluorophenyl)benzamide] | 50 to 100 | 50 to 100 | A (80-100) |
| CC1(c2cc(Cl)cc(Cl)c2)C(C(=O)Nc2ccc(Cl)c(C(=O)Nc3ccc(F)cc3F)c2)C1(Cl)Cl (stereo not drawn) [F252, 2-Chloro-5-trans-(2,2-dichloro-3-(3,5-dichlorophenyl)-3-methylcyclopropane-1-carboxamido)-N-(2,4-difluorophenyl)benzamide] | 50 to 100 | 50 to 100 | A (80-100) |
| Cc1cc(NC(=O)OC(C)(C)C)ccc1NC(=O)c1cc(NC(=O)[C@H]2[C@H](c3cc(Cl)cc(Cl)c3)C2(Cl)Cl)ccc1Cl [F275, tert-Butyl (4-(2-chloro-5-((1R,3R)-2,2-dichloro-3-(3,5-dichlorophenyl)cyclopropane-1-carboxamido)benzamido)-3-methylphenyl)carbamate] | 50 to 100 | 50 to 100 | A (80-100) |
| Cc1cc(NC(=O)OC(C)(C)C)ccc1NC(=O)c1cc(NC(=O)[C@H]2[C@H](c3ccc(Cl)c(Cl)c3)C2(Cl)Cl)ccc1Cl [F277, tert-Butyl (4-(2-chloro-5-((1R,3R)-2,2-dichloro-3-(3,4-dichlorophenyl)cyclopropane-1-carboxamido)benzamido)-3-methylphenyl)carbamate] | 50 to 100 | 50 to 100 | A (80-100) |
| O=C(Nc1ccc(F)cc1F)c1cc(NC(=O)[C@H]2[C@H](c3cc(Cl)c(Cl)c(Cl)c3)C2(Cl)Cl)ccc1Cl [F281, 2-Chloro-5-((1R,3R)-2,2-dichloro-3-(3,4,5-trichlorophenyl)cyclopropane-1-carboxamido)-N-(2,4-difluorophenyl)benzamide] | 50 to 100 | 50 to 100 | A (80-100) |
| O=C(Nc1ccc(F)cc1F)c1cc(NC(=O)[C@@H]2[C@@H](c3cc(Cl)c(Cl)c(Cl)c3)C2(Cl)Cl)ccc1Cl [F282, 2-Chloro-5-((1S,3S)-2,2-dichloro-3-(3,4,5-trichlorophenyl)cyclopropane-1-carboxamido)-N-(2,4-difluorophenyl)benzamide] | 50 to 100 | 50 to 100 | A (80-100) |
| Cc1cc(N)ccc1NC(=O)c1cc(NC(=O)[C@H]2[C@H](c3cc(Cl)cc(Cl)c3)C2(Cl)Cl)ccc1Cl [F283, N-(4-Amino-2-methylphenyl)-2-chloro-5-((1R,3R)-2,2-dichloro-3-(3,5-dichlorophenyl)cyclopropane-1-carboxamido)benzamide] | 50 to 100 | 50 to 100 | A (80-100) |
| Cc1cc(N)ccc1NC(=O)c1cc(NC(=O)[C@@H]2[C@@H](c3cc(Cl)cc(Cl)c3)C2(Cl)Cl)ccc1Cl [F284, N-(4-Amino-2-methylphenyl)-2-chloro-5-((1S,3S)-2,2-dichloro-3-(3,5-dichlorophenyl)cyclopropane-1-carboxamido)benzamide] | 50 to 100 | 50 to 100 | A (80-100) |
| Cc1cc(N)ccc1NC(=O)c1cc(NC(=O)[C@H]2[C@H](c3ccc(Cl)c(Cl)c3)C2(Cl)Cl)ccc1Cl [F285, N-(4-Amino-2-methylphenyl)-2-chloro-5-((1R,3R)-2,2-dichloro-3-(3,4-dichlorophenyl)cyclopropane-1-carboxamido)benzamide] | 50 to 100 | 50 to 100 | A (80-100) |
| Cc1cc(N)ccc1NC(=O)c1cc(NC(=O)[C@H]2[C@H](c3cc(Cl)c(Cl)c(Cl)c3)C2(Cl)Cl)ccc1Cl [F286, N-(4-Amino-2-methylphenyl)-2-chloro-5-((1R,3R)-2,2-dichloro-3-(3,4,5-trichlorophenyl)cyclopropane-1-carboxamido)benzamide] | 50 to 100 | 50 to 100 | A (80-100) |
| Cc1cc(NC(=O)OC(C)(C)C)ccc1NC(=O)c1cc(NC(=O)[C@H]2[C@H](c3ccc(F)c(Cl)c3)C2(Cl)Cl)ccc1Cl [F290, tert-Butyl (4-(2-chloro-5-((1R,3R)-2,2-dichloro-3-(3-chloro-4-fluorophenyl)cyclopropane-1-carboxamido)benzamido)-3-methylphenyl)carbamate] | 50 to 100 | 50 to 100 | A (80-100) |
| Cc1cc(N)ccc1NC(=O)c1cc(NC(=O)[C@H]2[C@H](c3ccc(F)c(Cl)c3)C2(Cl)Cl)ccc1Cl [F291, N-(4-Amino-2-methylphenyl)-2-chloro-5-((1R,3R)-2,2-dichloro-3-(3-chloro-4-fluorophenyl)cyclopropane-1-carboxamido)benzamide] | 50 to 100 | 50 to 100 | A (80-100) |
| O=C(Nc1ncc(F)cc1F)c1cc(NC(=O)[C@H]2[C@H](c3ccc(Cl)c(Cl)c3)C2(Cl)Cl)ccc1Cl [F310, 2-Chloro-5-((1R,3R)-2,2-dichloro-3-(3,4-dichlorophenyl)cyclopropane-1-carboxamido)-N-(3,5-difluoropyridin-2-yl)benzamide] | 50 to 100 | 50 to 100 | A (80-100) |
| O=C(Nc1ncc(F)cc1F)c1cc(NC(=O)[C@H]2[C@H](c3cc(Cl)c(Cl)c(Cl)c3)C2(Cl)Cl)ccc1Cl [F311, 2-Chloro-5-((1R,3R)-2,2-dichloro-3-(3,4,5-trichlorophenyl)cyclopropane-1-carboxamido)-N-(3,5-difluoropyridin-2-yl)benzamide] | 50 to 100 | 50 to 100 | A (80-100) |
| Nc1c(F)ccc(NC(=O)c2cc(NC(=O)[C@H]3[C@H](c4cc(Cl)cc(Cl)c4)C3(Cl)Cl)ccc2Cl)c1F [F313, N-(3-Amino-2,4-difluorophenyl)-2-chloro-5-((1R,3R)-2,2-dichloro-3-(3,5-dichlorophenyl)cyclopropane-1-carboxamido)benzamide] | 50 to 100 | 50 to 100 | A (80-100) |
